# Measurements reported in US20260001879A1, “COMPOUNDS AS MYT1 INHIBITORS” (WIGEN BIOMMEDICINE TECHNOLOGY (SHANGHAI) CO., LTD., priority 2022, published 2026).
# Where two headings read alike, the source gives them in different places.
# Key:
# [1] = In vitro stability experiment (HPLC purity after stirring in vehicle); format: physicochemical
# Description: (§1) Preparation of a standard curve: 10.01 mg of sample was weighed out and placed in a volumetric flask, and the volume was brought to 10 mL with acetonitrile/water (v/v, 9/1) to prepare 1.001 mg/mL of standard solution; the standard solution was then serially diluted to 0.5005 mg/mL, 0.1001 mg/mL, 0.05005 mg/mL, 0.01001 mg/mL, and 0.001001 mg/mL to generate the standard curve, and a linear equation was fitted by taking the peak area of the sample as a vertical axis and the concentration as a horizontal axis.
# (§2) Solubility and stability test: 15 mg of sample was added to 3 mL of vehicle (FaSSIF, FeSSIF, SGF, or water) to prepare a corresponding suspension at a target concentration of 5 mg/mL. The prepared suspension was stirred on a shaker (800 rpm) at 37° C. for 0.5 h, and the suspension was then filtered. The filtrate was diluted with a diluent to a corresponding multiple so that the peak height could not exceed the standard curve, and the solubility and purity were detected using HPLC.
# [2] = In vivo pharmacokinetic experiment in mice; design: species or system CD-1 female mice; details: mouse
# Description: CD-1 female mice aged 7 to 10 weeks were intravenously administered and orally administered at a dose of 2 mg/kg and 10 mg/kg, respectively. The mice were fasted for at least 12 h before the administration and given food 4 h after the administration, and they were given ad libitum access to water during the experiment. On the day of the experiment, animals in the intravenous group were administered the corresponding compound by single injection via the tail vein at an administration volume of 10 mL/kg. Animals in the oral group were administered the corresponding compound by single intragastric injection at an administration volume of 10 mL/kg. The animals were weighed before administration, and the administration volume was calculated according to the body weight. The sample collection time was 0.083 h (injection group), 0.167 h, 0.5 h, 1 h, 2 h, 4 h, 8 h, and 24 h. About 200 μL of whole blood was collected through the submaxillary venous plexus at each time point and used to prepare plasma for concentration determination by high-performance liquid chromatography-tandem mass spectrometry (LC-MS/MS). All animals were euthanized with CO2 anesthesia after the PK samples were collected at the last time point. The plasma concentrations were processed using a non-compartmental model of Phoenix WinNonlin™ version 8.3 (Certara) pharmacokinetic software, and the pharmacokinetic parameters were calculated using a linear-log trapezoidal method.
# MIA PaCa-2 cells [3] = assay: In vitro anti-proliferative activity in combination with gemcitabine against MIA PaCa-2 cells; format: cell-based
# Description: MIA PaCa-2 cells were seeded on a 384-well plate at 3000 cells/well, and 20 nM gemcitabine was added. After overnight adherence culture, DMSO or the compounds serially diluted 1:5 from 1000 nM were added. The viability was assessed 72 h after dosing by measuring the intracellular ATP content. The inhibition percentage of viable cells by the compounds was calculated by comparing with the DMSO group, and the IC50 value was calculated.
# [4] = In vitro solubility experiment; format: physicochemical; details: for solubility at 0.5 h: organic solvent or mixture, thermodynamic from solid
# Description: as §1, §2
# in vitro = details: dog, MDCK
# Description: (§3) In vitro passive permeability or the ability to serve as a P-glycoprotein (P-gp) transport substrate was tested using MDCK cells (MDCK wild type) or MDCK cells stably transduced with MDRI (MDCK-MDRI), respectively. The permeability experiment was performed in duplicate in a transwell system at a single concentration (5 μM). The cells were incubated for […] Apical-to-basolateral (A to B, A-B) transport and basolateral-to-apical (B to A, B-A) transport of the corresponding compound were determined, and the permeation rate (apparent permeability) (Papp×10^−6 cm/sec) and efflux ratio (Papp (B−A)/Papp (A−B)) of the test compound were calculated.
# [5] = test system: P-glycoprotein (P-gp, MDR1); assay: in vitro; details: dog
# Description: as §3
# MIA PaCa-2 cells [6] = assay: In vitro anti-proliferative activity against MIA PaCa-2 cells (compound alone); format: cell-based; details: 72 h, intracellular ATP content
# Description: MIA PaCa-2 cells were seeded on a 384-well plate at 3000 cells/well. After overnight adherence culture, DMSO or the compounds serially diluted 1:5 from 10 μM were added. The viability was assessed 72 h after dosing by measuring the intracellular ATP content. The inhibition percentage of viable cells by the compounds was calculated by comparing with the DMSO group, and the IC50 value was calculated.
# MDCK-Wild type = assay: in vitro
# Description: as §3
# MDCK-MDR1 = assay: in vitro; details: MDCK-MDR1
# Description: as §3
# recombinant protein MYT1 = recombinant protein MYT1 (Homo sapiens (Human), UniProt Q99640); assay: In vitro assay for inhibiting MYT1 kinase activity (ADP-GLO); format: biochemical; details: 10 μM ATP, read-out: Inhibitory activity against recombinant protein MYT1 IC50
# Description: Recombinant MYT1 protein and the compounds were pre-incubated at room temperature for 15 min, and 10 μM ATP was then added to start the reaction. The mixture was incubated at room temperature for another 60 min, and the ADP-GLO reagent from Promega was then added. The resulting mixture was incubated in the dark for 40 min, a detection solution was then added, and the mixture was incubated for another 45-60 min. The chemiluminescence was determined using ENVISION. The inhibition rate and IC50 were calculated compared to the DMSO group.
# [7] = stability in FaSSIF, initial pH 6.52, 37° C.
# [8] = stability in FeSSIF, initial pH 4.98, 37° C.
# [9] = stability in SGF, initial pH 1.2, 37° C.
# [10] = stability in Water, initial pH 7.7, 37° C.
# [11] = female, CD-1, plasma, iv, injection 2 mg/kg
# [12] = read-out: Anti-proliferative activity against MIA PaCa-2 cells (20 nM gemcitabine) IC50, with 20 nM gemcitabine, 72 h, intracellular ATP content
# Chain of recombinant protein MYT1 (Q99640 whole entry): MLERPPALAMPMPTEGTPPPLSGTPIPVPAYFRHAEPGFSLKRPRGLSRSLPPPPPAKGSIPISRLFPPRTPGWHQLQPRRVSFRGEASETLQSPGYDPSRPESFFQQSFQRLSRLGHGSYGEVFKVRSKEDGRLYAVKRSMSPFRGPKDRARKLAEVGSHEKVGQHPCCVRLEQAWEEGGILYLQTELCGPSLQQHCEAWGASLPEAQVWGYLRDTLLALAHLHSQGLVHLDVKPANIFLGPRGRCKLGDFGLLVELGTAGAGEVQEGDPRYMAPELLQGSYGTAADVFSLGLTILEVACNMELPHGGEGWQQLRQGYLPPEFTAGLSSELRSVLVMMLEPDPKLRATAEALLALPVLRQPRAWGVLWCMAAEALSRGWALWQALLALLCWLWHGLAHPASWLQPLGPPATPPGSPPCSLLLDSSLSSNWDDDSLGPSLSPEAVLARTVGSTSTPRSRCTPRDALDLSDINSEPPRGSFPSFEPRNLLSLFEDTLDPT
structure (smiles),measurement,setting,value
"Cc1cc2c(C(N)=O)c(N)n(-c3c(C)ccc(O)c3C)c2nc1C [RP-6306, reference compound]","HPLC purity (%, 220 nm) 0.5 h",[1]; [7],58.88%
same,"HPLC purity (%, 220 nm) 0.5 h",[1]; [8],74.51%
same,"HPLC purity (%, 220 nm) 0.5 h",[1]; [9],98.18%
same,"HPLC purity (%, 220 nm) 0.5 h",[1]; [10],40.92%
same,AUC(0-t),[2]; [11],376 ng·h/mL
same,half-life,[2]; [11],0.56 h
same,Vd,"[2]; female, CD-1, plasma, iv, injection 2 mg/kg, read-out: Vdss",2.46 L/kg
same,AUC(0-t),"[2]; female, CD-1, plasma, oral administration 10 mg/kg",1030 ng·h/mL
same,Cmax,"[2]; female, CD-1, plasma, oral administration 10 mg/kg, read-out: Cmax",881 ng/mL
same,Cl,[2]; injection 2 mg/kg,46.5 mL/min/kg
same,F %,[2]; oral administration 10 mg/kg,54.7%
same,IC50,"MIA PaCa-2 cells [3]; Homo sapiens, MIA PaCa-2, 72 h, read-out: Anti-proliferative activity against MIA PaCa-2 cells (20 nM gemcitabine) IC50, with 20 nM gemcitabine, 72 h, intracellular ATP content",29 nM
same,solubility at 0.5 h,[4]; Methanol,20200 µg/mL
same,solubility at 0.5 h,[4]; Tetrahydrofuran,4520 µg/mL
same,"efflux ratio at 90 min, 5 μM",in vitro,2.17
same,"Papp A→B at 90 min, 5 µM",in vitro; Papp A-B Mean,17.1 ×10⁻⁶ cm/s
same,"Papp A→B at 90 min, 5 µM",in vitro; Papp A-B Sample - 01,15.1 ×10⁻⁶ cm/s
same,"Papp A→B at 90 min, 5 µM",in vitro; Papp A-B Sample - 02,19.1 ×10⁻⁶ cm/s
same,"Papp B→A at 90 min, 5 µM",in vitro; Papp B-A Mean,37.2 ×10⁻⁶ cm/s
same,"Papp B→A at 90 min, 5 µM",in vitro; Papp B-A Sample - 01,38.5 ×10⁻⁶ cm/s
same,"Papp B→A at 90 min, 5 µM",in vitro; Papp B-A Sample - 02,35.9 ×10⁻⁶ cm/s
same,"efflux ratio at 90 min, 5 μM",[5]; MDCK-MDR1,2.64
same,"Papp A→B at 90 min, 5 µM","[5]; MDCK-MDR1, Papp A-B Mean",13.9 ×10⁻⁶ cm/s
same,"Papp A→B at 90 min, 5 µM","[5]; MDCK-MDR1, Papp A-B Sample - 01",13.9 ×10⁻⁶ cm/s
same,"Papp A→B at 90 min, 5 µM","[5]; MDCK-MDR1, Papp A-B Sample - 02",14 ×10⁻⁶ cm/s
same,"Papp B→A at 90 min, 5 µM","[5]; MDCK-MDR1, Papp B-A Mean",36.9 ×10⁻⁶ cm/s
same,"Papp B→A at 90 min, 5 µM","[5]; MDCK-MDR1, Papp B-A Sample - 01",37.6 ×10⁻⁶ cm/s
same,"Papp B→A at 90 min, 5 µM","[5]; MDCK-MDR1, Papp B-A Sample - 02",36.2 ×10⁻⁶ cm/s
"Cc1cc2c(C(N)=O)c(N)n(-c3c(C)c(O)cc(F)c3C)c2nc1C (single isomer, unassigned) [Compound 2]",IC50,MIA PaCa-2 cells [6],4320 nM
same,stability compared to RP-6306 (in words),"[1]; FaSSIF, FeSSIF, water","more stable than RP-6306 in FaSSIF, FeSSIF, and water"
same,"HPLC purity (%, 220 nm) 0.5 h",[1]; [7],88.76%
same,"HPLC purity (%, 220 nm) 0.5 h",[1]; [8],95.98%
same,"HPLC purity (%, 220 nm) 0.5 h",[1]; [9],98.69%
same,"HPLC purity (%, 220 nm) 0.5 h",[1]; [10],96.4%
same,Vdss compared to RP-6306 (in words),[2],greater increase in Vdss compared to RP-6306
same,half-life T1/2 compared to RP-6306 (in words),[2],longer half-life T1/2 compared to RP-6306
same,AUC0-last,[2]; injection 2 mg/kg,337.7 ng·h/mL
same,Cl,[2]; injection 2 mg/kg,94.4 mL/min/kg
same,T1/2,[2]; injection 2 mg/kg,3.32 h
same,Vdss,[2]; injection 2 mg/kg,6.76 L/kg
same,AUC0-last,[2]; oral administration 10 mg/kg,638.2 ng·h/mL
same,Cmax,[2]; oral administration 10 mg/kg,603.3 ng/mL
same,F %,[2]; oral administration 10 mg/kg,44.5%
same,T1/2,[2]; oral administration 10 mg/kg,3.84 h
same,IC50,MIA PaCa-2 cells [3]; [12],18 nM
same,anti-proliferative activity against MIA PaCa-2 cells in combination with gemcitabine (in words),MIA PaCa-2 cells [3]; with 20 nM gemcitabine,stronger anti-proliferative activity than that of RP-6306
same,solubility compared to RP-6306 (in words),"[4]; FaSSIF, FeSSIF, SGF, water, methanol, tetrahydrofuran",higher solubility in various vehicles
same,Solubility 0.5 h,"[4]; FaSSIF, initial pH 6.52, 37° C.",61 µg/mL
same,Solubility 0.5 h,"[4]; FeSSIF, initial pH 4.98, 37° C.",327 µg/mL
same,Solubility 0.5 h,[4]; Methanol,40568 µg/mL
same,Solubility 0.5 h,"[4]; SGF, initial pH 1.2, 37° C.",4865 µg/mL
same,Solubility 0.5 h,[4]; Tetrahydrofuran,6114 µg/mL
same,Solubility 0.5 h,"[4]; Water, initial pH 7.7, 37° C.",270 µg/mL
same,Papp A-B Mean,MDCK-Wild type,27.10 10^−6 cm · s^−1
same,Papp A-B Sample - 01,MDCK-Wild type,27.93 10^−6 cm · s^−1
same,Papp A-B Sample - 02,MDCK-Wild type,26.28 10^−6 cm · s^−1
same,Papp B-A Mean,MDCK-Wild type,42.24 10^−6 cm · s^−1
same,Papp B-A Sample - 01,MDCK-Wild type,39.97 10^−6 cm · s^−1
same,Papp B-A Sample - 02,MDCK-Wild type,44.50 10^−6 cm · s^−1
same,permeability compared to RP-6306 (in words),MDCK-Wild type,superior permeability to that of RP-6306
same,Papp A-B Mean,MDCK-MDR1,20.50 10^−6 cm · s^−1
same,Papp A-B Sample - 01,MDCK-MDR1,21.08 10^−6 cm · s^−1
same,Papp A-B Sample - 02,MDCK-MDR1,19.91 10^−6 cm · s^−1
same,Papp B-A Mean,MDCK-MDR1,35.01 10^−6 cm · s^−1
same,Papp B-A Sample - 01,MDCK-MDR1,35.27 10^−6 cm · s^−1
same,Papp B-A Sample - 02,MDCK-MDR1,34.76 10^−6 cm · s^−1
same,permeability compared to RP-6306 (in words),MDCK-MDR1,superior permeability to that of RP-6306
same,IC50,recombinant protein MYT1,≤ 200 nM
"Cc1cc2c(C(N)=O)c(N)n(-c3c(C)cc(F)c(O)c3C)c2nc1C (single isomer, unassigned) [Compound 7]",IC50,MIA PaCa-2 cells [6],> 10000 nM
same,IC50,MIA PaCa-2 cells [3]; [12],> 1000 nM
same,IC50,recombinant protein MYT1,≤ 200 nM
Cc1ccc(O)c(C)c1-n1c(N)c(C(N)=O)c2cc(C#N)c(C)nc21 [Compound 10],IC50,MIA PaCa-2 cells [6],4240 nM
same,IC50,MIA PaCa-2 cells [3]; [12],45 nM
same,IC50,recombinant protein MYT1,≤ 200 nM
